Measured values published in paper PMC3853684 (Scientific Reports, 2013).

Experiments:
[1] = intravenous injection, animal-based work; cited from earlier work
[2] = monkeys, starting level, cervical puncture; cited from earlier work
[3] = Plasma OXT concentration after intranasal OXT; assay type: in vivo; settings: male, human, inhaled or intranasal, 24 IU
[4] = cited from earlier work
[5] = cited from earlier work; remark: listed apart in the source
[6] = intranasal 16 or 24 IU; cited from earlier work
[7] = humans, cited from earlier work

Molecule	fraction of the peptide that crossed the blood-brain barrier (BBB) [1]	OXT CSF concentration before increase [2]	Tmax [3] [min]	level at 1.5 h ([3]; SD) [ng/mL]	time of increases in OXT plasma concentrations ([4]; intranasal 24 IU) [min]	time of peak elevated OXT plasma concentrations ([4]; intranasal OXT 30 IU, three male volunteers) [min]	increase of half-life in CSF (compared to plasma) [5]	duration of increase in OXT saliva concentrations [6]	time to increase in CSF concentrations ([7]; intranasal 40 IU)	increase in CSF concentrations (fold) ([7]; intranasal 80 IU)	time to significant increase in CSF concentrations ([7]; intranasal 80 IU) [min]
CC[C@H](C)[C@@H]1NC(=O)[C@H](Cc2ccc(O)cc2)NC(=O)[C@@H](N)CSSC[C@@H](C(=O)N2CCC[C@H]2C(=O)N[C@@H](CC(C)C)C(=O)NCC(N)=O)NC(=O)[C@H](CC(N)=O)NC(=O)[C@H](CCC(N)=O)NC1=O [OXT, oxytocin]	approximately 0.01%	around 20 pg/ml	15	0.0123 ± 0.006	30 to 40	10 to 40	30–40 fold	up to 7 h	–	–	–
arginine vasopressin [arginine vasopressin (AVP)]	–	–	–	–	–	–	–	–	up to 60 min	up to 4 fold	10
